Results published in PMC3237348, “Chemical Genomics Profiling of Environmental Chemical Modulation of Human Nuclear Receptors” (Environmental Health Perspectives, 2011).

Experiments:
ERα = target: T1, ERα (Homo sapiens, UniProt P03372); assay: GAL-LBD beta-lactamase reporter qHTS, HEK […], […] nm ratio; assay type: cell-based
T1 construct: gene ESR1; GeneBLAzer bla HEK 293T reporter line (Invitrogen)
T1 sequence (P03372 311-547 limits assumed): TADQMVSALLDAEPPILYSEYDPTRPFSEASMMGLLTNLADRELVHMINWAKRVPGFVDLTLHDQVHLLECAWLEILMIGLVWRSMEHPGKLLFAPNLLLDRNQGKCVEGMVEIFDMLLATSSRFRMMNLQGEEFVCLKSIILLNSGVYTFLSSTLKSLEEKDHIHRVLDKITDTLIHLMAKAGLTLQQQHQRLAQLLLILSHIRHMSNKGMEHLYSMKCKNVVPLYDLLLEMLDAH

PPARδ [1] = target: T2, PPARδ (Homo sapiens, UniProt Q03181); assay: as above; assay type: cell-based
T2 construct: gene PPARD; GeneBLAzer bla HEK 293T reporter line (Invitrogen)
T2 sequence (Q03181 139-441 limits assumed): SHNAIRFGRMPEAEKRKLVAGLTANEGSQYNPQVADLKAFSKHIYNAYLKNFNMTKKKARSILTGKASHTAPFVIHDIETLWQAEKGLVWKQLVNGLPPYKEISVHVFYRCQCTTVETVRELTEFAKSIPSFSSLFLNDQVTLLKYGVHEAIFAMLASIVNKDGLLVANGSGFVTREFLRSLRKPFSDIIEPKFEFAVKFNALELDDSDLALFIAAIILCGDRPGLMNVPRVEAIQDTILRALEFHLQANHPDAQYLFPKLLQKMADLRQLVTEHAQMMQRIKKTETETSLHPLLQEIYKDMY

RXRα = target: T3, RXRα (Homo sapiens, UniProt P19793); assay: as above; assay type: cell-based
T3 construct: gene RXRA; GeneBLAzer bla HEK 293T reporter line (Invitrogen)
T3 sequence (P19793 225-462 limits assumed): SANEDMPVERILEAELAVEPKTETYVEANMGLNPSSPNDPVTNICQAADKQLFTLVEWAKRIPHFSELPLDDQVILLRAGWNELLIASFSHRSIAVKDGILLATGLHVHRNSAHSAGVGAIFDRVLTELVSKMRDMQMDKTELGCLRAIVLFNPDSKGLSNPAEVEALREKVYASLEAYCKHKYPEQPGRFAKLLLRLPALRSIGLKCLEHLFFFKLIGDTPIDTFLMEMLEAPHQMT

PPARγ [2] = target: T4, PPARγ (Homo sapiens, UniProt P37231); assay: as above; assay type: cell-based
T4 construct: gene PPARG; GeneBLAzer bla HEK 293T reporter line (Invitrogen)
T4 sequence (P37231 238-505 limits assumed): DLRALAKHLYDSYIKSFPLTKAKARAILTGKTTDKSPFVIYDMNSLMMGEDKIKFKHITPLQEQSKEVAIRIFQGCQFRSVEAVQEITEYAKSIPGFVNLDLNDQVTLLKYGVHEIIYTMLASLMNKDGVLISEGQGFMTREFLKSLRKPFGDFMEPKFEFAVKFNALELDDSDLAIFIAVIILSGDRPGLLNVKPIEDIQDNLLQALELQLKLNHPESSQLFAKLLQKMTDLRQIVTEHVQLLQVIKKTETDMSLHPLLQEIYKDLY

LXRβ = target: T5, LXRβ (Homo sapiens, UniProt P55055); assay: as above; assay type: cell-based; conditions: agonist mode; […]-18 h at […] °C; unreliable
T5 construct: gene NR1H2; GeneBLAzer bla HEK 293T reporter line (Invitrogen)
T5 sequence (P55055 222-460 limits assumed): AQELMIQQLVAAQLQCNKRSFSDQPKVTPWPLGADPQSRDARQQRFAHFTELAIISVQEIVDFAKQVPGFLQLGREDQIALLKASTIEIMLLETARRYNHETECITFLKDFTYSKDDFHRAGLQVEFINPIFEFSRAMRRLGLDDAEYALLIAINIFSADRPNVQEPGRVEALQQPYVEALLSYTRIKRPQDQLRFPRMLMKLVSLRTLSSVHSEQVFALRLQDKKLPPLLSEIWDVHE

PPARγ [3] = target: T4, PPARγ; assay: as above; assay type: cell-based; remark: listed apart in the source
PPARγ [4] = target: T4, PPARγ; assay: cell-based; set-up: species or system HEK 293T; GeneBLAzer GAL4-LBD beta-lactamase reporter, antagonist mode with added agonist, 460/530 nm FRET ratio; conditions: with rosiglitazone 0.05 uM; antagonist mode, known agonist added; read-out: Control Titration EC50/IC50 (µM), antagonist mode
Text: (§1) β-Lactamase reporter gene assay and qHTS. […] All cell culture reagents were obtained from Invitrogen.

PPARδ [5] = target: T2, PPARδ; assay: cell-based; set-up: species or system HEK 293T; GeneBLAzer GAL4-LBD beta-lactamase reporter, antagonist mode with added agonist, 460/530 nm FRET ratio; conditions: with L165041 0.5 uM; antagonist mode, known agonist added; read-out: Control Titration EC50/IC50 (µM), antagonist mode
Text: as §1

GR = target: T6, GR (Homo sapiens, UniProt P04150); assay: GAL-LBD beta-lactamase reporter qHTS, HEK […], […] nm ratio; assay type: cell-based
T6 construct: gene NR3C1; GeneBLAzer bla HEK 293T reporter line (Invitrogen)
T6 sequence (P04150 521-777 limits assumed): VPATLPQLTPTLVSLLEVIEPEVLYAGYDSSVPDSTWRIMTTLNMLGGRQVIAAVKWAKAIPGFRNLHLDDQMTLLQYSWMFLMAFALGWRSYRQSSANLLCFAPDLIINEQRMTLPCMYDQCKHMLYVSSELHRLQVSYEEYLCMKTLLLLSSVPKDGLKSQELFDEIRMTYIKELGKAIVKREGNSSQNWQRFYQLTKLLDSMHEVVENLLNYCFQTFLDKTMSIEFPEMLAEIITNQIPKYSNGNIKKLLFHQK

PPARδ [6] = target: T2, PPARδ; assay: cell-based; set-up: species or system HEK 293T; GeneBLAzer GAL4-LBD beta-lactamase reporter, agonist mode, 460/530 nm FRET ratio; conditions: agonist mode; read-out: Control Titration EC50/IC50 (µM), agonist mode
Text: as §1

`CCCc1c(-c2ccc(O)cc2)nn(-c2ccc(O)cc2)c1-c1ccc(O)cc1` [1,3,5-tris(4-Hydroxyphenyl)-4-propyl-1H-pyrazole] showed an EC50 (ERα) of 0.1 µM.

Molecule `CCCCCCCCCCCCCCC(Br)C(=O)O` (centres unmarked) [2-Bromohexadecanoic acid] has an EC50 (PPARδ [1]) of 28.2 µM.

With `CC1(C)CCC(C)(C)c2cc(C(=O)Nc3ccc(C(=O)O)cc3)ccc21` [AM-580] the EC50 (RXRα) was 0.62 µM.

`CC(C)(c1ccc(OCC2CO2)cc1)c1ccc(OCC2CO2)cc1` (centres unmarked) [BADGE] was tested, and the IC50 (PPARγ [2]; antagonist mode, nonsaturating agonist pre-added, […]-18 h at […] °C) was 50.1 µM.

`CC(C)CCC[C@@H](C)[C@H]1CC[C@H]2[C@@H]3CC=C4C[C@@H](O)CC[C@]4(C)[C@H]3CC[C@]12C` [Cholesterol] was tested, and the EC50 (LXRβ) was 39.81 µM.

`CC(C)C[C@H](NC(=O)OCC1c2ccccc2-c2ccccc21)C(=O)O` [Fmoc-l-leucine] was tested, and the EC50 (PPARγ [3]) was 11.2 µM.

With `O=C(Nc1ccccc1)c1cc([N+](=O)[O-])ccc1Cl` [GW9662] the IC50 (PPARγ [4]) was 0.011 µM and the IC50 (PPARγ [2]) was 12.6 µM.

`CC(C)c1ccc2c(c1)c(SC(C)(C)C)c(CC(C)(C)C(=O)O)n2Cc1ccc(Cl)cc1` [MK886] was tested, and the IC50 (PPARδ [5]) was 54 µM.

`O=S(=O)(c1ccccc1)N(CC(F)(F)F)c1ccc(C(O)(C(F)(F)F)C(F)(F)F)cc1` [TO-901317] gave an EC50 (LXRβ) of 0.25 µM.

For `C/C(=C\c1ccc(C(=O)O)cc1)c1ccc2c(c1)C(C)(C)CCC2(C)C` [TTNPB, (E)-4-[2-(5,6,7,8-tetrahydro-5,5,8,8-tetramethyl-2-naphthylenyl)-1-propenyl] benzoic acid], the EC50 (RXRα) was 0.71 µM.

Work on `C[C@]12C=CC(=O)C=C1CC[C@H]1[C@@H]3C[C@@H](O)[C@](O)(C(=O)CO)[C@@]3(C)C[C@H](O)[C@@]12F` [Triamcinolone] yielded an EC50 (GR) of 0.11 µM.

`CCCc1c(OCCCOc2ccc(OCC(=O)O)cc2)ccc(C(C)=O)c1O` [l-165,041] gave an EC50 (PPARδ [1]) of 0.09 µM and an EC50 (PPARδ [6]) of 0.036 ± 0.006 µM.
